Measured values as given in patent US20220392580A1, “COMPUTATIONAL MODEL TRAINED TO PREDICT INTERACTING PAIRS BASED ON WEAKLY-CORRELATED FEATURES” (Cornell University, priority 2016, published 2022).
Structures can show the parent of a compound that is named as a salt.

Legend:
DRD2L [1] = biological target: T1, DRD2L (Homo sapiens, UniProt P14416); experiment: antagonism of arrestin recruitment to DRD2L, Gaddam/Schild EC50 shift analysis; type: cell-based; parameters: expressed in transfected cells; conditions: dopamine completely reverses dose-dependent antagonism of up to 100 uM ONC201
T1 sequence (P14416 whole entry): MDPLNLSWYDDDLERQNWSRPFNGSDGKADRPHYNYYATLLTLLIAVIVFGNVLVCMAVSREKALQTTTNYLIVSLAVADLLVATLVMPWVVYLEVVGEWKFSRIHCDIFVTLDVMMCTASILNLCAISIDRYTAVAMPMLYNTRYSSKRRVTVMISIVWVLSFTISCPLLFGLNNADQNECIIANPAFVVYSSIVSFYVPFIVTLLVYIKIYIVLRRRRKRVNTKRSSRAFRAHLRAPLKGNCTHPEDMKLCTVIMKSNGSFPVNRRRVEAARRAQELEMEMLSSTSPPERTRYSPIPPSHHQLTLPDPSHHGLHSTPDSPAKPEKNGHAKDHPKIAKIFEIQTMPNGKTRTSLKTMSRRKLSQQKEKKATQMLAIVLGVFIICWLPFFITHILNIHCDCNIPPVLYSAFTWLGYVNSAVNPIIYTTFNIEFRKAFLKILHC
Method: (§1) To test the target prediction, in vitro profiling of GPCR activity using a hetereologous reporter assay for arrestin recruitment, a hallmark of GPCR activation was performed.

[2] = test system: D2-like (DRD2/3/4) subfamily of dopamine receptors; conditions: arrestin recruitment GPCR profiling
Method: as §1

DRD4 = DRD4 (Homo sapiens, UniProt P21917); conditions: arrestin recruitment GPCR profiling; potency relative to DRD2 and DRD3
DRD4, sequence (P21917 whole entry): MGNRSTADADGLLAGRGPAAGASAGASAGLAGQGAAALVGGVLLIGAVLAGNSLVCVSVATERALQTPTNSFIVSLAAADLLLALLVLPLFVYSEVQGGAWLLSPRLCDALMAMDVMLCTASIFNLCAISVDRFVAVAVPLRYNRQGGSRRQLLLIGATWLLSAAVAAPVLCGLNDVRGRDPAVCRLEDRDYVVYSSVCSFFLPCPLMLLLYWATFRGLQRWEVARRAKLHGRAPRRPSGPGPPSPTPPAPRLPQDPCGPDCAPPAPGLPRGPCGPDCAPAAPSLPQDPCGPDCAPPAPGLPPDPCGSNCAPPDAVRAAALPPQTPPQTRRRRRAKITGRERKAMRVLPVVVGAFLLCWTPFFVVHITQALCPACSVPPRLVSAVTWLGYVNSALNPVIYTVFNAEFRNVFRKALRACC
Method: as §1

[3] = test system: D1-like (DRD1/5) subfamily of dopamine receptors; conditions: arrestin recruitment GPCR profiling
Method: as §1

[4] = test system: short and long isoforms of DRD2; conditions: arrestin recruitment GPCR profiling
Method: as §1

DRD2L [5] = biological target: T1, DRD2L; conditions: another measure of DRD2L activation
[6] = test system: nuclear hormone receptors; experiment: interaction profiling
other GPCRs = experiment: in vitro profiling of GPCR activity, heterologous reporter assay for arrestin recruitment; type: cell-based; conditions: under the evaluated conditions
Method: as §1

[7] = test system: other drug targets of FDA-approved cancer therapies; experiment: interaction profiling
breast cancer patients = conditions: recent clinical trials; cited from earlier work

Row | Structure (SMILES) | mode of antagonism of DRD2L (reversal by dopamine) (DRD2L [1]) | interactions with the kinome (the kinome) | antagonism of D2-like dopamine receptors [2] | antagonism of DRD4 (DRD4) | antagonism of D1-like dopamine receptors [3] | antagonism of DRD2 short and long isoforms [4] | cAMP modulation in response to compound (DRD2L [5]) | interactions with nuclear hormone receptors [6] | antagonism of other GPCRs (other GPCRs) | interactions with other drug targets of FDA-approved cancer therapies [7] | patients showing any detectable response after treatment (breast cancer patients)
1 | Cc1ccccc1CN1C(=O)C2=C(CCN(Cc3ccccc3)C2)N2CCN=C12 [ONC201] | direct, competitive antagonism | no significant interactions | selectively antagonizes | weaker potency | but not D1-like (DRD1/5) | antagonized | Confirmatory results | no significant interactions | no observed antagonism | no significant interactions | –
2 | C=C1C[C@@H]2CC[C@@]34C[C@H]5O[C@H]6[C@@H](O3)[C@H]3O[C@H](CC[C@@H]3O[C@H]6[C@H]5O4)CC(=O)C[C@@H]3[C@@H](OC)[C@@H](C[C@H](O)CN)O[C@H]3C[C@H]3O[C@@H](CC[C@@H]1O2)C[C@@H](C)C3=C [Eribulin, Eribulin mesylate] | – | – | – | – | – | – | – | – | – | – | < 50%
